“And” between values parts separate entries of the source, which are not always exact repeats. Identical values can stand only once. “Also recorded” adds a separate entry of the source. Like-named read-outs stand apart in the source and are kept apart here. Where no end group is shown, it is not given here.
Assays:
MDV strain RB1B [1] = settings: cited from earlier work; for IC50: MDV plaque formation, previous study, read-out: 50% inhibitory concentration (IC50), plaque formation
From the text: Our previous study reported that both glycoproteins gB and gH of the herpesvirus Marek's disease virus (MDV) contain eleven potential heptad repeat domains. […] HR1 and HR2 can form of a six-helix bundle structure, which is known as the virus fusion central core and is believed to bring the viral and cellular membranes closer together. […] This observation is in contrast with our results with MDV and other herpesviruses, [29], [33], in which three N-terminal HRs show ...

[2] = individual peptides; previous study; cited from earlier work
From the text: In addition, the gBH1 peptide forms a homotrimeric structure with a molecular weight of 10.7 kDa. gHH3 adopts a monomer formation with a molecular weight of 3.8 kDa, and gHH1 forms a homotetramer with a molecular weight of approximately 12.1 kDa. Gel filtration was used to confirm the interactions between peptides. […] As show ...

MDV strain RB1B [3] = assay type: cell-based, Marek's disease virus; settings: for IC50: plaque formation, CEF cells, co-treatment: 100 pfu MDV incubated with peptide 2 hrs at 37°C, then 5 days in DMEM 2% FBS, triplicate, means ± SD, read-out: antiviral activity IC50; for virucidal activity (in words): virus pre-treatment: virus incubated with peptide at 25 μM for 1 hr at 37°C, then titrated on cell monolayers
Experimental: Primary chicken embryo fibroblasts (CEFs) were cultured as previously described. CEF-associated MDV strain RB1B,which was obtained from the Shandong Agriculture University and passaged multiple times in primary CEFs was incubated for 2 hrs at 37°C. Following incubation, the virus inoculum on the cells was replaced with DMEM supplemented with 2% FBS, and the cultures were incubated for another 5 days longer Consistent and uniform plaques were observed and counted using an Olympus microscope, and images were captured using DP Controller. CEF-associated MDV from the same passage at 2×10^4 plaque forming units (pfu) was used in both infectivity assays in this study.
All peptides were dissolved in DMEM without FBS and used at a range of concentrations. For the antiviral activities of peptides in the co-treatment assay, 100 pfu of MDV was incubated with the peptide at different concentrations for 2 hrs at 37°C. Following incubation, the virus-peptide mixtures on the cells were replaced with DMEM supplemented with 2% FBS, and the cultures were incubated for 5 days. At the end of this period, 50% inhibitory concentrations (IC50) values were calculated. […] For all treatments, unpenetrated virus was inactivated in a low pH buffer after the 45 min incubation with cells at 37°C. The monolayers were incubated for 5 days at 37°C in DMEM supplemented with 2% FBS. The ratio of plaque counts to the no peptide sample control is reported as the percentage of plaque formation (by arithmetic conversion of the mean percent plaque formation). The results are expressed as the average of triplicates ± the standard deviation, and all experiments were performed in parallel with each peptide and a non-specific peptide (i.e., scramble).

[4] = target: gH-derived HR3 peptide (gHH3) (Marek's disease virus strain RB1B)
[5] = target: gH-derived HR3 peptide (gHH3) (Marek's disease virus strain RB1B); assay: SEC
[6] = target: gH-derived HR3 peptide (gHH3) (Marek's disease virus strain RB1B); assay: SEC; remark: listed apart in the source
[7] = target: gB-derived HR1 peptide (gBH1) (Marek's disease virus strain RB1B); assay: SEC
gB-derived HR1 peptide (gBH1) (Marek's disease virus strain RB1B), sequence (P18538 340-367 limits assumed): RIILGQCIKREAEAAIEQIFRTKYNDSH

Question: Which results are given for `CC[C@H](C)[C@H](NC(=O)[C@H](C)NC(=O)[C@H](C)NC(=O)[C@H](CCC(=O)O)NC(=O)[C@H](C)NC(=O)[C@H](CCC(=O)O)NC(=O)[C@H](CCCNC(=N)N)NC(=O)[C@H](CCCCN)NC(=O)[C@@H](NC(=O)[C@H](CS)NC(=O)[C@H](CCC(N)=O)NC(=O)CNC(=O)[C@H](CC(C)C)NC(=O)[C@@H](NC(=O)[C@@H](NC(=O)[C@@H](N)CCCNC(=N)N)[C@@H](C)CC)[C@@H](C)CC)[C@@H](C)CC)C(=O)N[C@@H](CCC(=O)O)C(=O)N[C@@H](CCC(N)=O)C(=O)N[C@H](C(=O)N[C@@H](Cc1ccccc1)C(=O)N[C@@H](CCCNC(=N)N)C(=O)N[C@H](C(=O)N[C@@H](CCCCN)C(=O)N[C@@H](Cc1ccc(O)cc1)C(=O)N[C@@H](CC(N)=O)C(=O)N[C@@H](CC(=O)O)C(=O)N[C@@H](CO)C(=O)N[C@@H](Cc1c[nH]cn1)C(=O)O)[C@@H](C)O)[C@@H](C)CC` [gBH1]?
Answer: IC50 (MDV strain RB1B [1]): < 12 µM; Molecular mass of individual peptide in solution by gel filtration [2]: 10.7 kDa; Molecular state of individual peptide [2]: homotrimeric; also recorded: Trimer

Question: Which IC50 (MDV strain RB1B [3]) does the source give for “EERKKLGEEIKKEAEEAKKQIEETKKNDEE [gHB1-EK]” here?
Answer: 8.7 ± 1.29 µM

Question: What does the source list for HMNASDMEIKSYINMIESVEESSNYDF [gHH1]?
Answer: IC50 (MDV strain RB1B [1]): < 12 µM; blocking of viral infection in co-treatment and post-treatment assays (in words) (MDV strain RB1B [1]; virus co-treatment (co) and post-treatment (post)): blocked viral infection; IC50 (MDV strain RB1B [3]): 4.1 ± 0.26 µM; virucidal activity (in words) (MDV strain RB1B [3]): no or low virucidal activity; Molecular mass of individual peptide in solution by gel filtration [2]: approximately 12.1 kDa and 12.1 kDa; Molecular state of individual peptide [2]: homotetramer; also recorded: Tetramer

Question: For “KKNEEIIKKLEEKTKKNEEKNKKSEEILKKLEELRKK [gHH3-EK]”, which IC50 (MDV strain RB1B [3]) is on record?
Answer: 6.3 ± 1.16 µM

Question: Which results are given for “NADIIKSLIRKTIINASKNTASLSILQHLYVLRS [gHH3]”?
Answer: IC50 (MDV strain RB1B [1]): < 12 µM; IC50 (MDV strain RB1B [3]): 12.2 ± 0.28 µM; virucidal activity (in words) (MDV strain RB1B [3]): no or low virucidal activity; Molecular mass of individual peptide in solution by gel filtration [2]: 3.8 kDa; Molecular state of individual peptide [2]: Monomer

Question: Which antiviral activity IC50 (plaque formation, MDV on CEF cells) of the mixture of the three peptides gHH1+gHH3+gBH1, the same level as gHH1 alone [4] does the source give for gB-derived HR1 peptide (gBH1) here?
Answer: 4.7 µM

Question: And the stoichiometry N [5]?
Answer: 3

Question: And the stoichiometry N [6]?
Answer: 1

Question: What does the source list for gH-derived HR1 peptide (gHH1)?
Answer: stoichiometry N [5]: 1; stoichiometry N [6]: 3; stoichiometry N [7]: 1

From PMC3566115, “Interaction Domain of Glycoproteins gB and gH of Marek's Disease Virus and Identification of an Antiviral Peptide with Dual Functions” (PLoS ONE, 2013)
